# Measurements taken from patent US10870660B2, “Nitrogen-containing condensed ring compounds having dopamine D3 antagonistic effect” (Shionogi & Co., Ltd., priority 2016, dated 2020).
# Tested on: Male Crl: WI rats
# Assay: Effect of suppressing impulsivity in rat (T-maze delayed large reward choice, i.p.)
# Type: in vivo
# Settings: 3 mg/kg, daily over 5 days, tested 40 min after administration, compared with vehicle control group
# Source text: Male Crl: WI rats were obtained at post-natal day 14 and weaning was occurred at post-natal day 21. Starting from then, the rats were housed 2-3 per cage and food-restricted (Day 1). The feeding amount was 5 g/day at post-natal day 21-28 (Day 1-8), 8.5 g/day at post-natal day 29-32 (Day 9-12), and 10 g/day at post-natal day 33-36 (Day 13-16), preventing their body weight from being 60% or less of the weight of the free feeding rats.
# 4 days after the beginning of the food restriction (Day 5), pellets were put on goal boxes located in the left-side and the right-side of T-maze. Then, the rats were allowed to freely explore the T-maze-box for 5 min to get habituated to the T-maze box and learn that the pellets were put on the goal boxes located in the left-side and the right-side. For 4 consecutive days from the next day (Day 6-9), one pellet (20 mg×1) was put in one side of the goal box as a small reward, and 5 pellets (20 mg×5) were put in the other side of the goal box as a large reward, and the rats were trained to learn their positions. Each rat underwent 10-trial per day trainings. […] The evaluations of the drug efficacy were started on Day 12. The compounds of the present invention were dissolved in distilled water containing 3% of 1 mol/L hydrochloric acid and administered i.p. to the trained rats to attain the dose of 1, 3 or 10 mg/kg. […]
compound,measurement,value
O=C(N[C@H]1CC[C@H](CCN2CCc3sc(OCC(F)F)nc3C2)CC1)c1cccc2ncccc12 [Compound I-085],number of choices of the large reward during total 50 trials of 5 days,significantly increased
